The values that follow come from patent US5547940A, “Method for stimulating proliferation of colon cells using POMC76-103” (Ludwig Institute for Cancer Research, priority 1994, dated 1996).

pEC50: −log10 of the molar value. Values joined by “and” are separate entries in the source; they are usually repeats but may differ in a detail not shown here. Equal entries are not always repeated. Where two headings read alike, the source gives them in different places. Peptide text beside a SMILES is read from it.

The pEC50 is the negative decadic logarithm of the EC50, by convention in mol/L. Read a low pEC50 as a large EC50.

The test system of test [1] is LIM 1215 cells.
Excerpt: The material was synthesized, using art recognized techniques, and was then used in a mitogenic assay on LIM 1215 cells, following Nice et al., J. Biol. Chem. 266: 14425-14430 (1991), which is incorporated by reference in its entirety.
For test [2], the system named is colonic crypt cells. As to the kind of experiment: Growth factors together with LIM 2537 conditioned medium on colonic crypt cells (synergism). Type of test: cell-based. The conditions noted are these: tested on murine colonic crypt cells.
Description: In another set of experiments, human colonic crypt cells were tested with conditioned medium from LIM 2537, together with different growth factors.
In test [3] the test system is LIM 1215 cells. Kind of test: Colony formation of LIM 1215 cells in semi-solid agar. Type of test: cell-based, human. The conditions noted are these: rhEGF 10 ng/ml alone. The protocol:
Colony formation using various factors was studied. Cells of cell line LIM 1215 were cloned in semi-solid agar (0.3%) following Whitehead et al., Int. J. Canc. 46:858-863 (1990). Briefly, the cells were trypsinized and resuspended in RPMI 1640 plus 5% FCS. Cells in the suspension were counted and then resuspended in a mixture of 0.3% agar in RPMI 1640 plus 10% FCS (40° C.), at a concentration of 10^4 cells per ml. The mixture was plated in 1.5 volumes in 35 mm^2 dishes, and allowed to set. Plates were then incubated at 37° C. in 5% CO2 and 100% humidity for 14 days. A solution of 0.1% crystal violet was aded to the plates, and colonies of more than 40 cells were counted.
Conditioned medium was prepared by incubating confluent monolayers of colon carcinoma cell lines with fresh RPMI 1640 plus 5% FCS for 48 hours. Medium was then removed, sterilized by filtration, and added to the agar plates at a final concentration of 10% (v/v). […] See Whitehead, supra.
The effect of the POMC76-103, alone and combination with epidermal growth factor (EGF) was investigated. The peptide and recombinant human EGF ("rhEGF") were tested alone, and combined, in colony formation assays as described supra.

In test [1], `CSCC[C@H](NC(=O)[C@@H](NC(=O)[C@H](Cc1ccc(O)cc1)NC(=O)[C@@H](N)CCCCN)C(C)C)C(=O)NCC(=O)N[C@@H](Cc1c[nH]cn1)C(=O)N[C@@H](Cc1ccccc1)C(=O)N[C@@H](CCCNC(=N)N)C(=O)N[C@@H](Cc1c[nH]c2ccccc12)C(=O)N[C@@H](CC(=O)O)C(=O)N[C@@H](CCCNC(=N)N)C(=O)N[C@@H](Cc1ccccc1)C(=O)NCC(=O)N[C@@H](CCCNC(=N)N)C(=O)N[C@@H](CCCNC(=N)N)C(=O)N[C@@H](CC(N)=O)C(=O)NCC(=O)N[C@@H](CO)C(=O)N[C@@H](CO)C(=O)N[C@@H](CO)C(=O)N[C@@H](CO)C(=O)NCC(=O)N[C@H](C(=O)NCC(=O)NCC(=O)N[C@@H](C)C(=O)N[C@@H](C)C(=O)N[C@@H](CCC(N)=O)C(=O)O)C(C)C` [POMC76-103] (H-KYVMGHFRWDRFGRRNGSSSSGVGGAAQ-OH) had a negative-log EC50 (pEC50) of approximately 10.12. The compound EGF: epidermal growth factor had a stimulation index in test [1] (LIM 1215 cells, FIGS. 16A/16B) of 8 fold. Also, in test [1] (mitogenic assay, LIM 1215 cells), the pEC50 is 10.30. Moreover, the “synergism with the LIM 2537 conditioned medium” value (from here on “synergism”) in test [2] is “None of these factors showed any synergism”. For IL-6: interleukin 6, the “synergism” value in test [2] is on record as “None of these factors showed any synergism”.

Regarding PDGF, the “synergism” value in test [2] is listed as “None of these factors showed any synergism”. Turning to rhEGF: recombinant human EGF, the “LIM 1215 Colony Stimulating Activity, Colonies” value in test [3] was 300 and 320.
